Consider 21 compounds from patent US12344610B2, “APOL1 inhibitors and methods of use” (Maze Therapeutics, Inc., priority 2022, dated 2025).

Read-outs that look alike come from different tables or passages of the source.

Common to all, as to type: cell-based
For test [1], the system named is Trypanosoma brucei Lister 427 VSG221 with APOL1 G2 recombinant protein. The experiment in a line: APOL1 G2 trypanosome cell rescue assay (Example B5). The following applies: geometric mean of at least 2 assay runs, † = single assay run. The method in brief: (§1)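 Luminescent ATP read-out (CellTiter-Glo) of trypanosome viability after 20 h at 37° C. Bloodstream T. brucei Lister 427 VSG221, 250/well in modified HMI-9, were exposed to recombinant mature APOL1 (aa 28-398) from a 2 μg/mL addition, plus compound in 11-point 2-fold series.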

In test [2] the test system is HEK293 clonal cell line overexpressing APOL1 G1. The experiment in a line: APOL1 G1 HEK293 cell rescue assay (Example B3). Conditions: geometric mean of at least 2 runs, † = single run, ¥ = concentration at 50% rescue estimated (no sigmoidal curve). Put shortly: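 Rescue of cell death caused by APOL1 G1 overexpression was measured in a clonal HEK293 line. Compounds were tested in duplicate on one plate, and EC50s were geometric means across at least two runs on different days. Some values are estimated 50%-rescue concentrations where curve fitting failed.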

Test [3] concerns Trypanosoma brucei Lister 427 VSG221 with APOL1 G0 recombinant protein. The test is described as follows: APOL1 G0 trypanosome cell rescue assay (Example B5). Conditions: geometric mean of at least 2 assay runs, † = single assay run. The method in brief: as §1
Setting [4] is: Trypanosoma brucei, 20 h, read-out: APOL1 G2 Trypanosome Rescue EC50, Trypanosoma brucei Lister 427 VSG221 with APOL1 G2 recombinant protein, 20 hours, CellTiter-Glo.
[5] abbreviates: Homo sapiens, HEK293, HEK293 clonal line overexpressing APOL1 G1.
[6] abbreviates: Trypanosoma brucei, 20 h, read-out: APOL1 G0 Trypanosome Rescue EC50, Trypanosoma brucei Lister 427 VSG221 with APOL1 G0 recombinant protein, 20 hours, CellTiter-Glo.

On to `CC(O)c1ncc(OCCN2CCC3(CC2)C(=O)Nc2ccc(Cl)cc23)cc1C(F)(F)F` (single isomer, unassigned) [Compound 292, 5-chloro-1′-[2-({6-[(1S) or (1R)-1-hydroxyethyl]-5-(trifluoromethyl)pyridin-3-yl}oxy)ethyl]-1,2-dihydrospiro[indole-3,4′-piperidin]-2-one], for which the EC50 (usually the concentration that produces a half-maximal response) in test [1] (read-out: APOL1 G2 Trypanosome Rescue EC50, Trypanosoma brucei Lister 427 VSG221 with APOL1 G2 recombinant protein, 20 hours, CellTiter-Glo) was 10.8 nM; in test [2] (HEK293 clonal line overexpressing APOL1 G1), 51.5 nM; in test [3] (read-out: APOL1 G0 Trypanosome Rescue EC50, Trypanosoma brucei Lister 427 VSG221 with APOL1 G0 recombinant protein, 20 hours, CellTiter-Glo), 31.6 nM.
Take `O=C1CCc2cc(OCCN3CCC4(CC3)C(=O)Nc3ccc(Cl)cc34)cnc2N1[C@H]1C[C@@](O)(C2CC2)C1` (single isomer, unassigned) [Compound 297, 5-chloro-1′-[2-({7-oxo-8-[(trans)-3-cyclopropyl-3-hydroxycyclobutyl]-5,6,7,8-tetrahydro-1,8-naphthyridin-3-yl}oxy)ethyl]-1,2-dihydrospiro[indole-3,4′-piperidin]-2-one]: the EC50 is 31.5 nM in test [1] (setting [4]), 119 nM in test [2] (setting [5]) and 72.6 nM in test [3] (setting [6]).
In the same order, the values of `C[C@]1(O)C[C@H](N2C(=O)CCc3cc(OCCN4CCC5(CC4)C(=O)Nc4ccc(Cl)cc45)cnc32)C1` (single isomer, unassigned) [Compound 307, 5-chloro-1′-[2-({7-oxo-8-[(trans)-3-hydroxy-3-methylcyclobutyl]-5,6,7,8-tetrahydro-1,8-naphthyridin-3-yl}oxy)ethyl]-1,2-dihydrospiro[indole-3,4′-piperidin]-2-one] are 27.2 nM, 70 nM and 65.7 nM.
In the same order, the values of `CS(=O)(=O)c1ccc(OCCN2CCC3(CC2)C(=O)N(CCO)c2ccc(Cl)cc23)cc1` [Compound 18, 5-chloro-1-(2-hydroxyethyl)-1′-[2-(4-methanesulfonylphenoxy)ethyl]-1,2-dihydrospiro[indole-3,4′-piperidin]-2-one] are 234 nM, 663 nM and 690 nM.
The corresponding values for `COCCN1C(=O)C2(CCN(CCOc3ccc(S(C)(=O)=O)cc3)CC2)c2cc(Cl)ccc21` [Compound 20, 5-chloro-1′-[2-(4-methanesulfonylphenoxy)ethyl]-1-(2-methoxyethyl)-1,2-dihydrospiro[indole-3,4′-piperidin]-2-one] are 263 nM, 815 nM and 798 nM.
With `CN1C(=O)C2(CCN(CCOc3ccc(S(=O)(=O)CCCS(C)(=O)=O)cc3)CC2)c2cc(Cl)ccc21` [Compound 23, 5-chloro-1′-{2-[4-(3-methanesulfonylpropanesulfonyl)phenoxy]ethyl}-1-methyl-1,2-dihydrospiro[indole-3,4′-piperidin]-2-one], the EC50 in test [1] (setting [4]) is 113 nM; in test [2] (setting [5]), 449 nM; in test [3] (setting [6]) it was 321 nM.
Consider `CS(=O)(=O)c1ccc(OCCN2CCC3(CC2)C(=O)N(CCO)c2ccc(Br)cc23)cc1` [Compound 24, 5-bromo-1-(2-hydroxyethyl)-1′-[2-(4-methanesulfonylphenoxy)ethyl]-1,2-dihydrospiro[indole-3,4′-piperidin]-2-one], for which the 50% effective concentration (EC50) in test [1] (setting [4]) is 163 nM; in test [2] (setting [5]), 609 nM; in test [3] (setting [6]), 513 nM.
For the compound `COCCN1C(=O)C2(CCN(CCOc3ccc(S(C)(=O)=O)cc3)CC2)c2cc(C#N)ccc21` [Compound 25, 1′-[2-(4-methanesulfonylphenoxy)ethyl]-1-(2-methoxyethyl)-2-oxo-1,2-dihydrospiro[indole-3,4′-piperidine]-5-carbonitrile], the EC50 in test [1] (setting [4]) was 1230 nM; in test [2] (setting [5]) it was roughly 8300 nM; in test [3] (setting [6]) it was greater than 4000 nM.
In the same order, the values of `CS(=O)(=O)c1ccc(OCCN2CCCC3(CC2)C(=O)Nc2ccccc23)cc1` (stereo not drawn) [Compound 26, 1-(2-(4-(methylsulfonyl)phenoxy)ethyl)spiro[azepane-4,3′-indolin]-2′-one] are greater than 4000 nM, roughly 10900 nM and greater than 4000 nM.
In the same order, the values of `CN1C(=O)CCc2cc(OCCN3CCC4(CC3)C(=O)Nc3ccc(Cl)cc34)ccc21` [Compound 27, 5-chloro-1′-[2-[(1-methyl-2-oxo-3,4-dihydroquinolin-6-yl)oxy]ethyl]spiro[indoline-3,4′-piperidine]-2-one] are 66.3 nM, 186 nM and 201 nM.
In the same order, the values of `O=C1CCc2cc(OCCN3CCC4(CC3)C(=O)Nc3ccc(Cl)cc34)cnc2N1CCO` [Compound 192, 5-chloro-1′-(2-{[8-(2-hydroxyethyl)-7-oxo-5,6,7,8-tetrahydro-1,8-naphthyridin-3-yl]oxy}ethyl)-1,2-dihydrospiro[indole-3,4′-piperidin]-2-one] are 49.1 nM, 126 nM and 108 nM.
In the case of `CC(=O)N(C)CCS(=O)(=O)c1ccc(OCCN2CCC3(CC2)C(=O)Nc2ccc(Cl)cc23)cc1` [Compound 193, N-{2-[4-(2-{5-chloro-2-oxo-1,2-dihydrosiro[indole-3,4′-piperidin]-1′-yl}ethoxy)benzenesulfonyl]ethyl}-N-methylacetamide], the EC50 in test [1] (setting [4]) was 70.2 nM; in test [2] (setting [5]), 377 nM; in test [3] (setting [6]), 200 nM.
Regarding `CS(=O)(=O)C1(c2ccc(OCCN3CCC4(CC3)C(=O)Nc3ccc(Cl)cc34)cc2)COC1` [Compound 195, 5-chloro-1′-{2-[4-(3-methanesulfonyloxetan-3-yl)phenoxy]ethyl}-1,2-dihydrospiro[indole-3,4′-piperidin]-2-one], the EC50 in test [1] (setting [4]) is 19.8 nM; in test [2] (setting [5]), 72 nM; in test [3] (setting [6]), 48.2 nM.
The corresponding values for `O=C1Nc2ccc(Cl)cc2C12CCN(CCOc1ccc3c(c1)CCS3(=O)=O)CC2` [Compound 196, 5-(2-{5-chloro-2-oxo-1,2-dihydrospiro[indole-3,4′-piperidin]-1′-yl}ethoxy)-2,3-dihydro-1λ^6-benzothiophene-1,1-dione] are 60.3 nM, 207 nM and 160 nM.
In the same order, the values of `CS(=O)(=O)c1ccc(OCCN2CCC3(CC2)C(=O)Nc2ccc(Cl)cc23)cc1C(F)F` [Compound 197, 5-chloro-1′-{2-[3-(difluoromethyl)-4-methanesulfonylphenoxy]ethyl}-1,2-dihydrospiro[indole-3,4′-piperidin]-2-one] are 10.6 nM, 69.5 nM and 30.3 nM.
In the same order, the values of `O=C1Nc2ccc(Cl)cc2C12CCN(CCOc1ccc(S(=O)(=O)CCO)cc1)CC2` [Compound 198, 5-chloro-1′-{2-[4-(2-hydroxyethanesulfonyl)phenoxy)ethyl}-1,2-dihydrospiro[indole-3,4′-piperidin]-2-one] are 41.9 nM, 203 nM and 107 nM.
As for `CS(=O)(=O)Nc1ccc(OCCN2CCC3(CC2)C(=O)Nc2ccc(Cl)cc23)cc1` [Compound 214, N-[4-(2-{5-chloro-2-oxo-1,2-dihydrospiro[indole-3,4′-piperidin]-1′-yl}ethoxy)phenyl]methanesulfonamide], the half-maximal effective concentration (EC50) is 88.7 nM in test [1] (setting [4]), 169 nM in test [2] (setting [5]) and 250 nM in test [3] (setting [6]).
Regarding `O=C1Nc2ccc(Cl)cc2C12CCN(CCOc1ccc(S(=O)(=O)[C@H]3C[C@H](O)C3)cc1)CC2` [Compound 215, 5-chloro-1′-[2-(4-{[(trans)-3-hydroxycyclobutyl]sulfonyl}phenoxy)ethyl]-1,2-dihydrospiro[indole-3,4′-piperidin]-2-one], the results for the EC50 in test [1] (setting [4]), in test [2] (setting [5]) and in test [3] (setting [6]) were 22.4 nM, 122 nM and 70.1 nM, respectively.
On to `CS(=O)(=O)c1ccc(OCCN2CCC3(CC2)C(=O)Nc2ccc(Cl)cc23)cc1C(O)CO` (stereo not drawn) [Compound 216, 5-chloro-1′-{2-[3-(1,2-dihydroxyethyl)-4-methanesulfonylphenoxy]ethyl}-1,2-dihydrospiro[indole-3,4′-piperidin]-2-one], for which the values for the 50% effective concentration (EC50) in test [1] (setting [4]), in test [2] (setting [5]) and in test [3] (setting [6]) were 231 nM, roughly 1000 nM and 629 nM, respectively.
In the same order, the values of `O=C1CCc2cc(OCCN3CCC4(CC3)C(=O)Nc3ccc(Cl)cc34)ccc2N1[C@H]1C[C@H](O)C1` [Compound 224, 5-chloro-1′-[2-({2-oxo-1-[(trans)-3-hydroxycyclobutyl]-1,2,3,4-tetrahydroquinolin-6-yl}oxy)ethyl]-1,2-dihydrospiro[indole-3,4′-piperidin]-2-one] are 32.7 nM, 155 nM and 66 nM.
In the same order, the values of `O=C1Nc2ccc(Cl)cc2C12CCN(CCOc1ccc(S(=O)(=O)C3(CO)CC3)cc1)CC2` [Compound 225, 5-chloro-1′-[2-(4-{[1-(hydroxymethyl)cyclopropyl]sulfonyl}phenoxy)ethyl]-1,2-dihydrospiro[indole-3,4′-piperidin]-2-one] are 12.9 nM, 51.7 nM and 35.2 nM.
